# Data reported in ChEMBL document CHEMBL4431371, “Targeting the Cystic Fibrosis Transmembrane Conductance Regulator (CFTR) Protein for the Treatment of Cystic Fibrosis” (ACS Med Chem Lett, 2016).
# Assays:
# [1] = biological target: T1, Cystic fibrosis transmembrane conductance regulator (Homo sapiens, UniProt P13569, F508DEL); assay: (§1) Corrector activity at CFTR F508del mutant in human bronchial epithelial cells incubated for 18 to 24 hrs by TECC-based conductance assay
# [2] = test system: Cystic fibrosis transmembrane conductance regulator (Homo sapiens), P13569 [F508del]; assay: as §1
# [3] = biological target: T1, Cystic fibrosis transmembrane conductance regulator; assay: (§2) Corrector activity at CFTR F508del mutant (unknown origin) expressed in human CFBE41o cells incubated for 18 to 24 hrs by CSE-HRP assay; assay type: cell-based
# [4] = test system: Cystic fibrosis transmembrane conductance regulator (Homo sapiens), P13569 [F508del]; assay: as §2; assay type: cell-based
# T1 sequence (P13569 as listed by the source): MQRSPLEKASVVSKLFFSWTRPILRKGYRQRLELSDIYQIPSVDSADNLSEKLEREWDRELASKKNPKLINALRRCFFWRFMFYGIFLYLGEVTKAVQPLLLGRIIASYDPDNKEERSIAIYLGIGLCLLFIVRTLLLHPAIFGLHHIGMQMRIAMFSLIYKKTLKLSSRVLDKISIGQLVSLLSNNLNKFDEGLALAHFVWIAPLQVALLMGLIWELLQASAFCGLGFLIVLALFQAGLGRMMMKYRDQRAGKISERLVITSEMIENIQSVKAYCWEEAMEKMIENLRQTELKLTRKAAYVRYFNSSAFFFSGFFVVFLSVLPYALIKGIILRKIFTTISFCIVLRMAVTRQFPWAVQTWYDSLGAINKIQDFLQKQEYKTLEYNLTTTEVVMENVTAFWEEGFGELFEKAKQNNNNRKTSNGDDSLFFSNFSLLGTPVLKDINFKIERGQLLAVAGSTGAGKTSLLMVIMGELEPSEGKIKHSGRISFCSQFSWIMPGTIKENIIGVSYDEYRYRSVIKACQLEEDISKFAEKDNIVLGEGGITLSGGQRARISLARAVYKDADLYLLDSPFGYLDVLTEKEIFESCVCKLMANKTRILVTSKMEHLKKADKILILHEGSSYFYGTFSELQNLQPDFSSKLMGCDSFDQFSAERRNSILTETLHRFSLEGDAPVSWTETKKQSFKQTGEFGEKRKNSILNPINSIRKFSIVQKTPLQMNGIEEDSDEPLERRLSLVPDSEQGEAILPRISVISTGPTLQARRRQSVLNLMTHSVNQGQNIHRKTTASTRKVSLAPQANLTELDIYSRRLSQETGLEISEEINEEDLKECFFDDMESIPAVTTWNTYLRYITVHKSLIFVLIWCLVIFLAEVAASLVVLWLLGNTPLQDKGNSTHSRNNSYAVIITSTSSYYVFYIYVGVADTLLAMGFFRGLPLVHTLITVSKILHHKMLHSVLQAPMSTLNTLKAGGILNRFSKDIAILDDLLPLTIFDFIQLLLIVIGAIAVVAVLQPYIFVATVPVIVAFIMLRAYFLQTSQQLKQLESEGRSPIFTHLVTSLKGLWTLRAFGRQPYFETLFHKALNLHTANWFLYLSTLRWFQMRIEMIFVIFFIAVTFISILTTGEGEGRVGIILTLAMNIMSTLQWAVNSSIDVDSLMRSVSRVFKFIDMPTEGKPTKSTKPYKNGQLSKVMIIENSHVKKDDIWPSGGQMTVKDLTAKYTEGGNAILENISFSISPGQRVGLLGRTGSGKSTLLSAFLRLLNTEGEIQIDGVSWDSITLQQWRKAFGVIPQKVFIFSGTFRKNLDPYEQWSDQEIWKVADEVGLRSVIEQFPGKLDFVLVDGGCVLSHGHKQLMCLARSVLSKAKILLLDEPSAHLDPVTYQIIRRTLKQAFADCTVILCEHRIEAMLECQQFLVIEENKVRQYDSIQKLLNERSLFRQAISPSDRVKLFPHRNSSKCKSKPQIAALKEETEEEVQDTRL
# Sequence of Cystic fibrosis transmembrane conductance regulator (Homo sapiens), P13569 [F508del] (P13569 as listed by the source): as above
SMILES,EC50 [1] [nM],max activation [2] [%],EC50 [3] [nM],max activation [4] [%]
O=C(O)c1ccc([C@H]2C[C@@H](NC(=O)C3(c4ccc5c(c4)OC(F)(F)O5)CC3)CCO2)cc1 (racemic),1340,73,2860,113
O=C(O)c1cccc([C@@H]2C[C@H](NC(=O)C3(c4ccc5c(c4)OC(F)(F)O5)CC3)C[C@H](c3ccccc3)O2)c1,,,20000,16
O=C(O)c1cccc([C@H]2C[C@@H](NC(=O)C3(c4ccc5c(c4)OC(F)(F)O5)CC3)CCO2)c1 (racemic),,,850,71
CCOC(=O)c1cc(C)cc([C@H]2C[C@@H](NC(=O)C3(c4ccc5c(c4)OC(F)(F)O5)CC3)C[C@@H](c3ccccc3)O2)c1 (racemic),,,1160,106

# These reach a lower EC50 [3]. Values come first.
EC50 [1] [nM],max activation [2] [%],EC50 [3] [nM],max activation [4] [%],SMILES
260,73,300,81,O=C(O)c1ccc([C@H]2C[C@@H](NC(=O)C3(c4ccc5c(c4)OC(F)(F)O5)CC3)C[C@@H](c3ccccc3)O2)cc1
100,94,280,109,O=C(O)c1cccc([C@H]2C[C@@H](NC(=O)C3(c4ccc5c(c4)OC(F)(F)O5)CC3)C[C@@H](c3ccccc3)O2)c1
